Read-outs that look alike come from different tables or passages of the source. Blank lines part the entries; values can stand above or below the compound they belong to.
Key:
IGR37 cells (parental) [1] = assay: Kinase inhibitor library screening, PrestoBlue cell viability, 1 or 10 μM, 72 h; conditions: IGR37 Parental
[2] = tested on: IGR37-XP cells (Vemurafenib-resistant); assay: as above; conditions: IGR37 XP
A375 cells (parental) [3] = assay: as above; conditions: A375 Parental
[4] = tested on: 501Mel-GP cells (Dabrafenib-resistant); assay: as above; conditions: 501Mel GP
[5] = tested on: IGR37-GP cells (Dabrafenib-resistant); assay: as above; conditions: IGR37 GP
501Mel cells (parental) [6] = assay: as above; conditions: 501Mel Parental
In short: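 PrestoBlue viability readout after 72 h exposure to each inhibitor at 1 or 10 μM, reported relative to untreated cells as % viability. Lines tested: sensitive parental plus derivatives resistant to Vemurafenib (XP) or Dabrafenib (GP), each run at least in duplicate.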

[7] = tested on: 501Mel-XP cells (Vemurafenib-resistant); assay: as above; conditions: 501Mel XP
[8] = tested on: A375-GP cells (Dabrafenib-resistant); assay: as above; conditions: A375 GP
[9] = tested on: A375-XP cells (Vemurafenib-resistant); assay: as above; conditions: A375 XP
[10] = tested on: IGR37-GP cells (Dabrafenib-resistant); assay: Dose-response curves and IC50, PrestoBlue cell viability, 72 h; conditions: read-out: Half-maximal inhibitory concentration (IC50)
Experimental: (§1) All inhibitors used in this study were purchased from Selleck Chemicals (Houston, USA). They were dissolved in DMSO to a stock concentration of 10 mM according to the manufacturer’s instructions and stored at − 80 °C. […] Cell viability was measured with the PrestoBlue Cell Viability Reagent (ThermoFisher Scientific) on a CLARIOstar Monochromator microplate reader (BMG Labtech). Using the GraphPad Prism v5.04 software, the half-maximal inhibitor concentration values (IC50) were determined from the curve using the nonlinear log (inhibitor) vs response-variable slope (four parameters) equation. […] The IC50’s were determined for 3 biological replicates and are listed with their standard deviations.
(§2) Values represent the mean of at least three biological replicates; one representative curve of at least 3 biological replicates is depicted. _XP: cells resistant to Vemurafenib (red), _GP: cells resistant to Dabrafenib (green).

[11] = tested on: IGR37-XP cells (Vemurafenib-resistant); assay: as above; conditions: read-out: Half-maximal inhibitory concentration (IC50)
Experimental: as §1, §2

IGR37 cells (parental) [12] = assay: as above; conditions: read-out: Half-maximal inhibitory concentration (IC50)
[13] = tested on: A375-GP cells (Dabrafenib-resistant); assay: as above; type: cell-based, human; conditions: n.e. = did not suppress growth below 50% in the tested concentration range, read-out: Half-maximal inhibitory concentration value (IC50), Mean
[14] = tested on: 501Mel-XP cells (Vemurafenib-resistant); assay: as above; conditions: read-out: Half-maximal inhibitory concentration (IC50)
A375 cells (parental) [15] = assay: as above; type: cell-based, human; conditions: read-out: Half-maximal inhibitory concentration value (IC50), Mean
501Mel cells (parental) [16] = assay: as above; conditions: read-out: Half-maximal inhibitory concentration (IC50)
Experimental: as §1, §2

[17] = tested on: 501Mel-GP cells (Dabrafenib-resistant); assay: as above; conditions: read-out: Half-maximal inhibitory concentration (IC50)
[18] = tested on: A375-XP cells (Vemurafenib-resistant); assay: as above; type: cell-based, human; conditions: n.e. = did not suppress growth below 50% in the tested concentration range, read-out: Half-maximal inhibitory concentration value (IC50), Mean
A375 cells = assay: Synergy determination with the Chou-Talalay method (CompuSyn), cell viability 72 h; type: cell-based, human; conditions: 72 h cell viability, Chou-Talalay / Synergyfinder
Experimental: The Chou-Talalay method to determine possible synergistic effects of selected kinase inhibitor combinations was used as described in [19]. […] Cells were treated with either single inhibitors or combinations thereof at indicated amounts in technical triplicates. The amounts were pre-determined from each inhibitor’s IC50 value and inhibitors were assayed in a defined dilution series and at constant ratio when combined. […] Combination Index (CI) values showing either synergy (< 1) or antagonism (> 1) were calculated with the CompuSyn software (ComboSyn, Inc).

[19] = Homo sapiens, A-375, n.e. = did not suppress growth below 50% in the tested concentration range

IC50 ([13]; Homo sapiens): 0.05 µM | IC50 ([18]; Homo sapiens): 0.059 µM
SMILES: COc1cc(OC)c(/C=C/S(=O)(=O)Cc2ccc(OC)c(NCC(=O)O)c2)c(OC)c1 [Rigosertib]
IC50 ([14]; Homo sapiens, 72 h): 0.063 µM | IC50 (A375 cells (parental) [15]; [19]): 0.064 µM | IC50 ([10]; Homo sapiens, 72 h): 0.09 µM | IC50 (501Mel cells (parental) [16]; Homo sapiens, 72 h): 0.08 µM | IC50 ([17]; Homo sapiens, 72 h): 0.07 µM | IC50 ([11]; Homo sapiens, 72 h): 0.121 µM | synergistic effects with the BRAF inhibitors Vemurafenib and/or Dabrafenib (in words) (A375 cells): did not act synergistically | IC50 (IGR37 cells (parental) [12]; Homo sapiens, IGR-37, 72 h): 0.103 µM

IC50 [13]: 1.91 µM | IC50 [18]: 3.2 µM
SMILES: Cc1ccc(C(=O)Nc2cccc(C(F)(F)F)c2)cc1Nc1nc(-c2cccnc2)nc2c1cnn2C [NVP-BHG712, reference compound]
cell viability (kinase inhibitor library screening) (IGR37 cells (parental) [1]; 1μΜ, in %): 107.5 | cell viability (kinase inhibitor library screening) (IGR37 cells (parental) [1]; 10μΜ, in %): 83.5 | cell viability (kinase inhibitor library screening) ([2]; 1μΜ, in %): 103.3 | cell viability (kinase inhibitor library screening) ([2]; 10μΜ, in %): 17.6 | cell viability (kinase inhibitor library screening) (A375 cells (parental) [3]; 1μΜ, in %): 103.3 | cell viability (kinase inhibitor library screening) (A375 cells (parental) [3]; 10μΜ, in %): 63.1 | cell viability (kinase inhibitor library screening) ([4]; 1μΜ, in %): 107.1 | cell viability (kinase inhibitor library screening) ([4]; 10μΜ, in %): 25.6 | cell viability (kinase inhibitor library screening) ([5]; 1μΜ, in %): 97.4 | cell viability (kinase inhibitor library screening) ([5]; 10μΜ, in %): 51.2 | cell viability (kinase inhibitor library screening) (501Mel cells (parental) [6]; 1μΜ, in %): 103.2 | cell viability (kinase inhibitor library screening) (501Mel cells (parental) [6]; 10μΜ, in %): 27.8 | cell viability (kinase inhibitor library screening) ([7]; 1μΜ, in %): 121.0 | cell viability (kinase inhibitor library screening) ([7]; 10μΜ, in %): 2.2 | cell viability (kinase inhibitor library screening) ([8]; 1μΜ, in %): 80.6 | cell viability (kinase inhibitor library screening) ([8]; 10μΜ, in %): 37.1 | cell viability (kinase inhibitor library screening) ([9]; 1μΜ, in %): 84.7 | cell viability (kinase inhibitor library screening) ([9]; 10μΜ, in %): 29.1 | IC50 ([14]; 501Mel-XP (Vemurafenib-resistant), 72 h cell viability): 3.82 µM | IC50 (A375 cells (parental) [15]; n.e. = did not suppress growth below 50% in the tested concentration range): 4.42 µM | IC50 ([10]; IGR37-GP (Dabrafenib-resistant), 72 h cell viability): 7.02 µM | IC50 (501Mel cells (parental) [16]; 501Mel parental, 72 h cell viability): 4.48 µM | IC50 ([17]; 501Mel-GP (Dabrafenib-resistant), 72 h cell viability): 4.88 µM | IC50 ([11]; IGR37-XP (Vemurafenib-resistant), 72 h cell viability): 5.95 µM | IC50 (IGR37 cells (parental) [12]; IGR37 parental, 72 h cell viability): 5.78 µM

IC50 ([13]; Homo sapiens): 6.43 µM | IC50 ([18]; Homo sapiens): 3.38 µM
SMILES: NC1(c2ccc(-c3nc4ccn5c(=O)[nH]nc5c4cc3-c3ccccc3)cc2)CCC1 [MK-2206]
IC50 ([14]; Homo sapiens, 72 h): 2.23 µM | IC50 (A375 cells (parental) [15]; [19]): 7.8 µM | IC50 ([10]; Homo sapiens, 72 h): 4.73 µM | IC50 (501Mel cells (parental) [16]; Homo sapiens, 72 h): 4.55 µM | IC50 ([17]; Homo sapiens, 72 h): 4.36 µM | IC50 ([11]; Homo sapiens, 72 h): 5.08 µM | IC50 (IGR37 cells (parental) [12]; Homo sapiens, IGR-37, 72 h): 4.75 µM

Further lines, the compound ahead of its results:

SMILES: CCS(=O)(=O)Nc1ccc2c(c1)/C(=C(/Nc1ccc(CN3CCCCC3)cc1)c1ccccc1)C(=O)N2 [Hesperadin, reference compound]
cell viability (kinase inhibitor library screening) (IGR37 cells (parental) [1]; 1μΜ, 72 h): 56.8% | cell viability (kinase inhibitor library screening) (IGR37 cells (parental) [1]; 10μΜ, 72 h): 48.6% | cell viability (kinase inhibitor library screening) ([2]; 1μΜ, 72 h): 35.1% | cell viability (kinase inhibitor library screening) ([2]; 10μΜ, 72 h): 2.0% | cell viability (kinase inhibitor library screening) (A375 cells (parental) [3]; 10μΜ, 72 h): 1.9% | cell viability (kinase inhibitor library screening) (A375 cells (parental) [3]; 1μΜ, 72 h): 7.5% | cell viability (kinase inhibitor library screening) ([4]; 1μΜ, 72 h): 81.7% | cell viability (kinase inhibitor library screening) ([4]; 10μΜ, 72 h): 46.9% | cell viability (kinase inhibitor library screening) ([5]; 1μΜ, 72 h): 52.6% | cell viability (kinase inhibitor library screening) ([5]; 10μΜ, 72 h): 12.7% | cell viability (kinase inhibitor library screening) (501Mel cells (parental) [6]; 1μΜ, 72 h): 45.1% | cell viability (kinase inhibitor library screening) (501Mel cells (parental) [6]; 10μΜ, 72 h): 33.5% | cell viability (kinase inhibitor library screening) ([7]; 1μΜ, 72 h): 70.7% | cell viability (kinase inhibitor library screening) ([7]; 10μΜ, 72 h): 3.6% | cell viability (kinase inhibitor library screening) ([8]; 1μΜ, 72 h): 13.0% | cell viability (kinase inhibitor library screening) ([8]; 10μΜ, 72 h): 9.9% | cell viability (kinase inhibitor library screening) ([9]; 1μΜ, 72 h): 13.3% | cell viability (kinase inhibitor library screening) ([9]; 10μΜ, 72 h): 3.7% | IC50 ([10]; Homo sapiens, 72 h): 1.03 µM | IC50 ([11]; Homo sapiens, 72 h): 0.77 µM | IC50 (IGR37 cells (parental) [12]; Homo sapiens, IGR-37, 72 h): 0.339 µM

SMILES: CNC(=O)c1cc(Oc2ccc(NC(=O)Nc3ccc(Cl)c(C(F)(F)F)c3)cc2)ccn1 [Sorafenib]
IC50 ([13]; Homo sapiens): 2.5 µM | IC50 ([14]; Homo sapiens, 72 h): 5.43 µM | IC50 (A375 cells (parental) [15]; [19]): 5.11 µM | IC50 ([10]; Homo sapiens, 72 h): 9.52 µM | IC50 (501Mel cells (parental) [16]; Homo sapiens, 72 h): 7.04 µM | IC50 ([17]; Homo sapiens, 72 h): 6.94 µM | IC50 ([11]; Homo sapiens, 72 h): 10 µM | IC50 ([18]; Homo sapiens): 4.54 µM | IC50 (IGR37 cells (parental) [12]; Homo sapiens, IGR-37, 72 h): 7.31 µM

SMILES: CCc1cnn2c(NCc3ccc[n+]([O-])c3)cc(N3CCCC[C@H]3CCO)nc12 [Dinaciclib]
IC50 ([14]; Homo sapiens, 72 h): 0.011 µM | IC50 ([10]; Homo sapiens, 72 h): 0.0136 µM | IC50 (501Mel cells (parental) [16]; Homo sapiens, 72 h): 0.012 µM | IC50 ([17]; Homo sapiens, 72 h): 0.011 µM | IC50 ([11]; Homo sapiens, 72 h): 0.0102 µM | IC50 (IGR37 cells (parental) [12]; Homo sapiens, IGR-37, 72 h): 0.0082 µM

Reference: paper PMC6364417, “Kinase inhibitor library screening identifies synergistic drug combinations effective in sensitive and resistant melanoma cells” (Journal of Experimental & Clinical Cancer Research : CR, 2019)
